The source of these data is patent US7202035B2, “Genetic markers for skatole metabolism” (University of Guelph, priority 1999, dated 2007).

Data set [1] is described as follows: Microsomal incubations of 3MI: production of 3MI metabolites by pig liver microsomes (HPLC). In kind it is in vitro ADME. The settings on record: for Maximum rate of production: highest of 30 pig liver microsome samples; for Minimum rate of production: lowest of 30 pig liver microsome samples; for Rate of Production (pmol/mg prot./min) ±SD: metabolite formed from 0.4 mM 3MI, mean ±SD, n = 30. The procedure:
Preparation of microsomes.
Microsomal incubations. […] C. (production of metabolites was determined to be linear over a range of 10 to 40 min). Incubation volumes were 0.5 ml. Reactions were started by the addition of NADPH after 3-minute preincubation periods at 37° C., and stopped with 0.5 ml of ice-cold acetonitrile. Incubations of all 30 samples were run in duplicate and for control incubations NADPH was omitted. […] A 50 μl aliquot of the clear supernatant was analyzed by high-performance liquid chromatography (HPLC).
Analytical chromatography. […] Absorbance was monitored at 250 nm; fluorescence was monitored at excitation and emission wavelengths of 286 and 350 nm, respectively. HPLC analysis for 3MI metabolites was conducted immediately after the incubations. Metabolites were identified by comparison of retention times, and co-injection of standards (spiking the metabolite mixture with authentic standards).
Background: Liver microsomes are a subcellular fraction often used to study metabolism.

For data set [2] the following is noted: rat liver microsomes incubated with 3-MI; cited from earlier work.
For data set [3], the system named is aldehyde oxidase. The following applies: up to 1.0 mM in the assay mixture.
Data set [4] can be described thus: Stability of isolated UV-1 in acetonitrile:water solution at room temperature (HPLC at 7-day intervals). It is filed as physicochemical. The procedure:
UV Spectroscopy. The UV spectrum of the metabolites identified on the basis of their retention times on HPLC (HMOI, 3MOI, I3C, and 2-aminoacetophenone) were identical to those of authentic standards. Spectra of metabolites were recorded using water as solvent, and the wavelengths of maximal absorption were as follows: HMOI: λmax (nm): 208, 253; 3MOI: λmax (nm): 205, 252; I3C: λmax (nm): 221, 278; 2-aminoacetophenone: λmax (nm): 228, 257. The UV spectrum of 3-methylindole was: λmax (nm): 224, 281. The UV spectrum of UV-1 metabolite was: λmax (nm): 204, 238. […] Isolated UV-1 was kept in acetonitrile:water solution at room temperature and the solution was analyzed by HPLC at 7-day intervals for 6 weeks. After 6 weeks only about 25% of the original compound remained and it was observed that UV-1 was converted into 3MOI.

Data set [5] relates to aldehyde oxidase. Put plainly: in vitro. The settings on record: male, pig, porcine liver cytosol, pH 7.4, probe HMI (conversion to HMOI).
Data set [6] can be described thus: Measurement of 3MI fat content in backfat (colorimetric assay). In kind it is in vivo, pig. From the text: Measurement of 3MI fat content. For the quantitation of the 3MI fat content, a sample of backfat was taken from each pig and its 3MI content measured with a colorimetric assay (Mortensen and Sorensen, 1984). All analysis were done in duplicate.
The nature of data set [7]: Skatole level in backfat of CYP2A6 deletion mutant and wild type pigs (colorimetric assay). In kind it is in vivo, pig. The settings on record: sample with CYP2A6 deletion mutation. The procedure: A backfat sample was collected at the midline point of 11th rib and frozen at −20° C. until assayed for skatole. The skatole content was measured with a colorimetric assay, according to the method described by Gonzalo et al. (2000).

The subject of data set [8] is aldehyde oxidase. Put plainly: Hepatic aldehyde oxidase activity measured as formation of HMOI from HMI by cytosol. It is filed as in vitro ADME, pig. The text has this:
Preparation of porcine liver cytosol.
Chromatographic analysis. […] Absorbance was monitored at 250 nm.

“And” between values parts separate entries of the source, which are not always exact repeats. Identical values can stand only once. “Also recorded” adds a separate entry of the source.

Regarding `CC1C(=O)Nc2ccccc21` (centres unmarked) [3-methyloxindole], in data set [1], the “Maximum rate of production” value is listed as 700.8 pmol/mg prot./min and the “Minimum rate of production” value stood at 234.4 pmol/mg prot./min. Moreover, in data set [1] (pig liver microsomes), the “Rate of Production (pmol/mg prot./min) ±SD” value is given as 420.9 ± 118.1 pmol/mg prot./min and the “Percentage of all 3MI metabolites produced (average)” value (“Percentage … (average)” below) is 27.9%. Also, the “Percentage of the metabolites formed” value in data set [2] is 5%.

On to `OCc1c[nH]c2ccccc12` [Indole-3-carbinol, indole-3-carbinol], for which, in data set [1], the “Maximum rate of production” value turned out to be 85.7 pmol/mg prot./min and the “Minimum rate of production” value is listed as 12.1 pmol/mg prot./min. Moreover, the “Rate of Production (pmol/mg prot./min) ±SD” value in data set [1] (pig liver microsomes) stood at 37.1 ± 15.8 pmol/mg prot./min.

Regarding `O=CNCC(=O)c1ccccc1` [2-formamidoacetophenone], the “Percentage of the metabolites formed” value in data set [2] was 33%.

Turning to `Oc1ncnc2[nH]ncc12` [allopurinol], in the data set on aldehyde oxidase [3], the “Effect on the conversion of HMI to HMOI” value is reported as “did not affect; also recorded: lack of inhibition”.

Turning to `Cc1c[nH]c2cc(O)ccc12` [6-OH-3-methylindole, 6-OH-3-methylindole], the “Average rate of production relative to the 5 isomer” value in data set [1] (6-OH-3MI versus 5-OH-3MI, pig liver microsomes) is recorded as “approximately eleven times greater”. In addition, the “Maximum rate of production” value in data set [1] amounted to 213.7 pmol/mg prot./min. In addition, in data set [1] (pig liver microsomes), the “Rate of Production (pmol/mg prot./min) ±SD” value amounted to 58.4 ± 47.2 pmol/mg prot./min and the “Percentage … (average)” value amounted to 4.9%.

With `CC1(O)C=Nc2ccccc21` (centres unmarked) [UV-1, 3-hydroxy-3-methylindolenine], in data set [1], the “Maximum rate of production” value is reported as 1556.3 pmol/mg prot./min and the “Minimum rate of production” value is listed as 180.5 pmol/mg prot./min. In data set [1] (pig liver microsomes), the “Rate of Production (pmol/mg prot./min) ±SD” value is 750.7 pmol/mg prot./min and 750.7 ± 414.5 pmol/mg prot./min; the “Percentage … (average)” value is 45.1%. Also, the “Stability (in words)” value in data set [4] is listed as “unstable compound”. In addition, the Original compound remaining result in data set [4] (acetonitrile:water solution, room temperature, after 6 weeks, converted into 3MOI) is given as “about 25%”.

On to `CCN(CC)CCCC(C)Nc1c2ccc(Cl)cc2nc2ccc(OC)cc12` (centres unmarked) [quinacrine], for which, in the data set with aldehyde oxidase [5], the activity at 10 min, 50 µM was determined as 75.5% and the activity at 10 min, 1 mM came out at 43.4%.

Turning to `Cc1c[nH]c2ccc(O)cc12` [5-OH-3-methylindole], in data set [1], the “Maximum rate of production” value turned out to be 27.3 pmol/mg prot./min and the “Minimum rate of production” value is given as 0.7 pmol/mg prot./min. In data set [1] (pig liver microsomes), the “Rate of Production (pmol/mg prot./min) ±SD” value came to 5.1 ± 5.8 pmol/mg prot./min and the “Percentage … (average)” value was determined as 0.3%. Besides, in data set [1] (pig liver microsomes, listed as 5-OH-3MI), the “Rate of Production (pmol/mg prot./min) ±SD” value was 5.1 pmol/mg prot./min.

Take `Cc1c[nH]c2ccccc12` [3-methylindole]: the “Mean 3-methylindole content (mg/kg) in fat” value in data set [6] (High accumulator pigs (0.2 mg/kg or more), n 7) worked out at 0.24 mg/kg; in data set [6] (Low accumulator pigs (0.1 mg/kg or less), n 8), 0.09 mg/kg; in data set [6] (Moderate accumulator pigs (0.11–0.19 mg/kg), n 15), 0.15 mg/kg. Further, the “3MI fat content, mean” value in data set [6] (all samples, 30 pigs) is 0.15 mg/kg. Further, the “3MI fat content, range” value in data set [6] (all samples, 30 pigs) is 0.07 to 0.3 mg/kg. In addition, the “Skatole level in fat versus wild type samples” value in data set [7] was “much higher”.

On to `CC1(O)C(=O)Nc2ccccc21` (centres unmarked) [3-hydroxy-3-methyloxindole], for which, in data set [1], the “Maximum rate of production” value was determined as 516.5 pmol/mg prot./min and the “Minimum rate of production” value is listed as 118.9 pmol/mg prot./min. For the same compound, in data set [1] (pig liver microsomes), the “Rate of Production (pmol/mg prot./min) ±SD” value was 272.4 ± 91.6 pmol/mg prot./min and the “Percentage … (average)” value was determined as 18.5%. For the same compound, the “Mean aldehyde oxidase activity (nmol HMOI/mg prot./min)” value (“Mean aldehyde oxidase activity” for short) in the data set on aldehyde oxidase [8] (High accumulator pigs, n 7) stood at 0.80 nmol HMOI/mg prot./min. Besides, the “Mean aldehyde oxidase activity” value with aldehyde oxidase [8] (Low accumulator pigs, n 8) was determined as 2.73 nmol HMOI/mg prot./min. Also, the “Mean aldehyde oxidase activity” value with aldehyde oxidase [8] (Moderate accumulator pigs, n 15) is recorded as 1.40 nmol HMOI/mg prot./min. Further, in the data set with aldehyde oxidase [8] (all samples, 30 pigs), the “AO activity, mean” value is listed as 1.27 nmol HMOI/mg protein/min and the “AO activity, range” value lay in the range of 0.25 to 3.53 nmol HMOI/mg protein/min.

As to `NCC(=O)c1ccccc1` [2-aminoacetophenone], in data set [1], the “Maximum rate of production” value is reported as 12.7 pmol/mg prot./min and the “Minimum rate of production” value is reported as 3.4 pmol/mg prot./min. Besides, in data set [1] (pig liver microsomes), the “Rate of Production (pmol/mg prot./min) ±SD” value is 7.8 ± 2.4 pmol/mg prot./min and the “Percentage … (average)” value came out at 0.5%. In addition, the “Percentage of the metabolites formed” value in data set [2] is recorded as 12%.
